In patent US20120237533A1, “Compositions and Methods for Inducing Apoptosis in Prostate Cancer Cells” (priority 2009, published 2012):

Assays:
PI3K [1] = details: J. Natl. Can. Inst. 2006, 98, 545-556; cited from earlier work
[2] = tested on: Prostate cancer C42 cells; experiment: Apoptosis assays: caspase-3 activity and time lapse video recording; format: cell-based; details: for concentration at which maximal caspase activation is achieved: comparison of PI3K inhibitors
Description: FIG. 6. […] Prostate cancer C42 cells were treated with 10 nM of TGFα-pseudomonas exotoxin chimera (PE) and 500 nM PI3K inhibitor ZSTK474 (ZSTK) or PI3K inhibitor LY294002 (LY) individually and in combination. A) Caspase activity was measured 3 h and 6 h after treatments began; B) Time lapse video-recording of C42 cells treated with 10 nM PE or combination of 10 nM PE and 500 nM ZSTK474. Representative images taken 2, 5, and 14 h after treatments began; C) Caspase activity measured 6 h after cells were treated with increasing concentrations of PE and 25 mcM of LY294002 (LY).
Western blotting—Tumors were excised, homogenized on ice in lysis buffer [10% glycerol, 50 mM PIPES-KOH (pH 7.4), 5 mM EDTA, 1% NP40, 1 mM DTT, protease and phosphatase inhibitors;] centrifuged 10 min 14,000 G to precipitate unsoluble fraction. Soluble fraction was resolved by SDS-PAGE followed by Western blotting on nitrocellulose. Nitrocellulose membranes were probed with antibodies to Akt and phospho-Akt according to manufacturer's instructions; the appropriate secondary antibodies were then applied and positive signals detected by enhanced chemiluminescence. Immunofluorescence—Cells were plated on glass coverslips in 6-well plates and treated and fixed with 10% formalin in PBS (pH 7.4) for 15 min. The cells were then blocked in 2.5% goat serum in PBS-T for 30 min at 37° C. Blocking solution was used to prepare a 1:300 mixture of mouse-J591 anti-PSMA antibodies subsequent procedures were done at room temperature. Incubation with primary antibodies was continued for 3 h. The cells were then washed three times with PBS-T and incubated with a mixture of goat antimouse antibodies conjugated with fluorescein, diluted in blocking solution at a ratio of 1:300 each. One h later, cells were washed with PBS-T, stained with DAPI, and mounted on glass microscope slides. Image analysis was done on a Nikon microscope equipped with a digital camera and software from Inovision (Durham, N.C.). Tumor Implantations—Nude mice (BALB/cAnNCrj-nu from Charles River) received four subcutaneous injections or two intratibial injections of 2×10^6 cells with Matrigel. Injections were made using an insulin syringe and a 27 gauge needle. All manipulations with animals were conducted in humane manner, in strict adherence with a protocol approved by institutional ACUC, which was designed to minimize animal suffering. Luminescence Imaging—Tumor growth was analyzed with a Xenogen IVIS® 100 optical imaging system (Caliper Life Sciences, Hopkinton, Mass.). Animals were immobilized for substrate injection and imaging through an attached gas anesthesia system consisting of 2% isoflurane/O2. To account for background and nonspecific luminescence, mice were imaged before injection of […]. Animals were injected with 100 μl of the firefly luciferase substrate luciferin (3.5 mg/ml in PBS) and imaged 15 minutes later in prone and supine positions (5 minutes each). Whole-body images were obtained using the Living Image® software provided with imaging system. A gray-scale photographic image and the bioluminescent color image are superimposed to provide anatomic registration of the light signal. A region of interest (ROI) was manually selected over the luminescent signal, and the intensity was recorded as photons/second within an ROI. Apoptosis Assays—Apoptosis in whole cell populations was quantified by measuring caspase-3 activity with the fluorogenic substrate Ac-DEVD-7-amido-4-trifluoromethyl-coumarin (Bachem) as specified by the manufacturer. For these experiments, attached and floating cells were collected and lysed in caspase lysis buffer (1% Nonidet P-40, 150 mM NaCl, 20 mM HEPES, 1 mM EDTA, 1 mM dithiothreitol, and 5 μg/ml aprotinin, leupeptin, and pepstatin). Fluorescence was recorded each 15 min for 1 h, and caspase activity was expressed in arbitrary units. […]

[3] = tested on: subcutaneous xenograft tumors; experiment: Luminescence imaging of subcutaneous xenograft tumors injected with LY294002; format: in vivo, mice; details: injections into subcutaneous xenograft tumors, versus DMSO
Text: (§1) FIG. 4A) Representative luminescent images (superimposed on black and white images) of mice injected with solvent (DMSO) or LY294002. Injection site is indicated by arrow. FIG. 4B) Changes in luminescence of subcutaneous xenograft tumors injected with LY294002 or DMSO (error bars show standard deviations between 3 tumors injected with each agent). FIG. 4C) Tissue sections of xenograft tumors. Arrowheads point at apoptotic cells. FIG. 4D) Inhibition of Akt phosphorylation in xenografts injected with LY294002. Western blotting of tumor lysates.
(§2) Western blotting—Tumors were excised, homogenized on ice in lysis buffer [10% glycerol, 50 mM PIPES-KOH (pH 7.4), 5 mM EDTA, 1% NP40, 1 mM DTT, protease and phosphatase inhibitors;] centrifuged 10 min 14,000 G to precipitate unsoluble fraction. […] Nitrocellulose membranes were probed with antibodies to Akt and phospho-Akt according to manufacturer's instructions; the appropriate secondary antibodies were then applied and positive signals detected by enhanced chemiluminescence. […] Luminescence Imaging—Tumor growth was analyzed with a Xenogen IVIS® 100 optical imaging system (Caliper Life Sciences, Hopkinton, Mass.). […] To account for background and nonspecific luminescence, mice were imaged before injection of luciferase. […] Fluorescence was recorded each 15 min for 1 h, and caspase activity was expressed in arbitrary units. […]

PI3K [4] = experiment: Western blotting of tumor lysates for Akt phosphorylation; format: in vivo, mice; details: xenografts injected with LY294002
Text: as §1, §2

## FC(F)c1nc2ccccc2n1-c1nc(N2CCOCC2)nc(N2CCOCC2)n1 [ZSTK474]
PI3K [1]
  PI3K inhibition relative to LY294002: more efficiently than LY294002
[2]; 0.5 μM of ZSTK474 in combination with 10 nM of TGFαPE40 fusion
  induction of apoptosis: maximal induction of apoptosis
[2]; C42 cells, 500 nM ZSTK474 with 10 nM TGFα-pseudomonas exotoxin chimera (PE), 3 h and 6 h
  induction of apoptosis (caspase activity, time lapse video): synergistic induction of apoptosis
[2]
  concentration at which maximal caspase activation is achieved: 0.5 µM

## O=c1cc(N2CCOCC2)oc2c(-c3ccccc3)cccc12 [LY294002]
[3]
  tumor growth (luminescence of xenograft tumors): inhibit
PI3K [4]
  PI3K activity (Akt phosphorylation in xenografts): inhibit PI3K activity
[2]; 25 μM LY294002 in combination with 10 nM of TGFαPE40 fusion
  induction of apoptosis: maximal induction of apoptosis
[2]; C42 cells, 25 mcM LY294002 with increasing concentrations of PE, 6 h
  induction of apoptosis (caspase activity): synergistic induction of apoptosis
[2]
  concentration at which maximal caspase activation is achieved: 25 µM

## Cn1c(=O)n(-c2ccc(C(C)(C)C#N)cc2)c2c3cc(-c4cnc5ccccc5c4)ccc3ncc21 [BEZ235]
[2]
  concentration at which maximal caspase activation is achieved: 5 µM
